Results from ChEMBL document CHEMBL4402560, “Sarco/Endoplasmic Reticulum Calcium ATPase Inhibitors: Beyond Anticancer Perspective” (J Med Chem, 2020).

How the values were obtained:
[1] = biological target: T1, Sarcoplasmic/endoplasmic reticulum calcium ATPase 1 (Oryctolagus cuniculus, UniProt P04191); test: Inhibition of rabbit skeletal muscle microsomes SERCA1a
[2] = biological target: T1, Sarcoplasmic/endoplasmic reticulum calcium ATPase 1; test: Inhibition of SERCA1 in rabbit skeletal muscle microsomes assessed as decrease in NADH absorbance by NADH-coupled enzyme assay; parameters: species or system Muscle tissue
[3] = biological target: T1, Sarcoplasmic/endoplasmic reticulum calcium ATPase 1; test: Inhibition of rabbit skeletal muscle microsomes SERCA1a by enzyme-coupled method
[4] = Inhibition of porcine cerebellar microsomes SERCA2b by enzyme-coupled method; parameters: species or system Sus scrofa domesticus, Cerebellum
[5] = Inhibition of SERCA2a in porcine cardiac microsomes; parameters: species or system Sus scrofa domesticus, Heart
[6] = biological target: T1, Sarcoplasmic/endoplasmic reticulum calcium ATPase 1; test: Inhibition of rabbit SERCA1b expressed in COS7 cells microsomal membranes preincubated for 10 mins followed by addition of ATP and measured after 40 mins by ELISA method; format: cell-based
[7] = biological target: T2, Sarcoplasmic/endoplasmic reticulum calcium ATPase 2 (Homo sapiens, UniProt P16615); test: Inhibition of human SERCA2b expressed in COS7 cells microsomal membranes preincubated for 10 mins followed by addition of ATP and measured after 40 mins by ELISA method; format: cell-based
T2 sequence (P16615 whole entry): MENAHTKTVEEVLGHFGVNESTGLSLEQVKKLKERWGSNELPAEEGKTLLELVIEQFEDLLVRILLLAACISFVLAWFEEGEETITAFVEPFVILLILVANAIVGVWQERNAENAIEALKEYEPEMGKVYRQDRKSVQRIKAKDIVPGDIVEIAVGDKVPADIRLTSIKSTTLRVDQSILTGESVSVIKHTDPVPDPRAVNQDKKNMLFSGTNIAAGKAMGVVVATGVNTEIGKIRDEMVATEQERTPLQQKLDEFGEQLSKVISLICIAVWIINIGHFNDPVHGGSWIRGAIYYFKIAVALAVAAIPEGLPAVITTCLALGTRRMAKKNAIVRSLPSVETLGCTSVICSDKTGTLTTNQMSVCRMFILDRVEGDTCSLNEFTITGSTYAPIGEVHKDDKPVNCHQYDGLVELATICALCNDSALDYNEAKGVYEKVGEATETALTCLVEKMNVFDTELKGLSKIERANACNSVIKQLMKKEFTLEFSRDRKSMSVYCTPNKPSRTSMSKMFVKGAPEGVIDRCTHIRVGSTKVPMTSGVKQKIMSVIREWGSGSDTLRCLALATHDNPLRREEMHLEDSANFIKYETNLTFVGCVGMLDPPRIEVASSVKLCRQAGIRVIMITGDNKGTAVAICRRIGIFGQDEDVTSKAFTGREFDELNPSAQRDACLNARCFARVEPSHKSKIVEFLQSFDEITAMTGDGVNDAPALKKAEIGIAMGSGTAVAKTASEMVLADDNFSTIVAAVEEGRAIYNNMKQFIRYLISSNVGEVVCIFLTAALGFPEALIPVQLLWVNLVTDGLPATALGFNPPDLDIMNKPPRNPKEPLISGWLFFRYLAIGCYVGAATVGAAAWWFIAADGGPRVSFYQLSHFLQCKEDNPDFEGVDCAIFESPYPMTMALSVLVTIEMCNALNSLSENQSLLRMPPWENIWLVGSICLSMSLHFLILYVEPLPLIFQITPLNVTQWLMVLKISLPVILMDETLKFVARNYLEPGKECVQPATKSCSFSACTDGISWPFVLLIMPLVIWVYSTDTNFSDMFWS

[8] = biological target: Sarcoplasmic/endoplasmic reticulum calcium ATPase 3 (Homo sapiens, UniProt Q93084); test: Inhibition of human SERCA3a expressed in COS7 cells microsomal membranes preincubated for 10 mins followed by addition of ATP and measured after 40 mins by ELISA method; format: cell-based
Sequence of Sarcoplasmic/endoplasmic reticulum calcium ATPase 3 (Q93084 whole entry): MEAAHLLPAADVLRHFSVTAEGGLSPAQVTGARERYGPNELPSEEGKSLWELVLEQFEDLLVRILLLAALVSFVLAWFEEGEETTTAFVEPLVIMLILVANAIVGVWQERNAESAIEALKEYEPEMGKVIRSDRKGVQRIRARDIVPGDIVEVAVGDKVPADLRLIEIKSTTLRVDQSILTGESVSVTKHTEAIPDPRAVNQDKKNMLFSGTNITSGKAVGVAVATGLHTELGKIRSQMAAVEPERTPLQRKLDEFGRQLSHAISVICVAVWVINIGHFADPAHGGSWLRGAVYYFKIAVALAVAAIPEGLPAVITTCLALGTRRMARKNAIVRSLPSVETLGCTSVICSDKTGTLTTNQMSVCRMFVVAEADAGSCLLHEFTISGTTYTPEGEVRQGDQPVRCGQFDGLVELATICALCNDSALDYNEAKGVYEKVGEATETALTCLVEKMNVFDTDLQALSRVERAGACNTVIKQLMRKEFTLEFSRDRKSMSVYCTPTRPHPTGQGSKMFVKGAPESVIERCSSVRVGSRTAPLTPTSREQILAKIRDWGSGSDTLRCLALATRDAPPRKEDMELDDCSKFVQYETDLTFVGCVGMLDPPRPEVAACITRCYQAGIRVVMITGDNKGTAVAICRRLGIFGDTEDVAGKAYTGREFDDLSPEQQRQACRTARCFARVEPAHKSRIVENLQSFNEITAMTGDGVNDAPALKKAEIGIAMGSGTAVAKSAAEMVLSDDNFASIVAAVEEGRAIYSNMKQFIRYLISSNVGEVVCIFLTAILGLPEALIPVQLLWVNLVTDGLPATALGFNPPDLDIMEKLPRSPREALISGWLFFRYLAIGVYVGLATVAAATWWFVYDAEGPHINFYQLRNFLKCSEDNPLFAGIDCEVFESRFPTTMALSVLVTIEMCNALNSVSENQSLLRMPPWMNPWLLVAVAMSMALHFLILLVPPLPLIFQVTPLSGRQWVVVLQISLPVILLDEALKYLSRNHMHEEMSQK

[9] = biological target: T2, Sarcoplasmic/endoplasmic reticulum calcium ATPase 2; test: Inhibition of SERCA2a (unknown origin)
[10] = biological target: T1, Sarcoplasmic/endoplasmic reticulum calcium ATPase 1; test: Inhibition of rabbit skeletal muscle microsomes SERCA1a preincubated for 10 mins followed by addition of ATP and measured after 40 mins
[11] = Inhibition of SERCA (unknown origin); parameters: species or system Homo sapiens
[12] = Inhibition of SERCA in human PC3 cell microsomes by enzyme-coupled method
[13] = biological target: T1, Sarcoplasmic/endoplasmic reticulum calcium ATPase 1; test: Inhibition of rabbit skeletal muscle microsomes SERCA1a by malachite green based colorimetric method
MIA PaCa-2 = test: Antiproliferative activity against human MIAPaCa2 cells; format: functional, cell-based
BJ = test: Antiproliferative activity against human BJ cells; format: functional, cell-based
MRC5 = test: Antiproliferative activity against human MRC5 cells; format: functional, cell-based
Homo sapiens = species on record: Homo sapiens; test: Inhibition of SERCA (unknown origin) at 150 uM relative ro control

T1 sequence (P04191 whole entry): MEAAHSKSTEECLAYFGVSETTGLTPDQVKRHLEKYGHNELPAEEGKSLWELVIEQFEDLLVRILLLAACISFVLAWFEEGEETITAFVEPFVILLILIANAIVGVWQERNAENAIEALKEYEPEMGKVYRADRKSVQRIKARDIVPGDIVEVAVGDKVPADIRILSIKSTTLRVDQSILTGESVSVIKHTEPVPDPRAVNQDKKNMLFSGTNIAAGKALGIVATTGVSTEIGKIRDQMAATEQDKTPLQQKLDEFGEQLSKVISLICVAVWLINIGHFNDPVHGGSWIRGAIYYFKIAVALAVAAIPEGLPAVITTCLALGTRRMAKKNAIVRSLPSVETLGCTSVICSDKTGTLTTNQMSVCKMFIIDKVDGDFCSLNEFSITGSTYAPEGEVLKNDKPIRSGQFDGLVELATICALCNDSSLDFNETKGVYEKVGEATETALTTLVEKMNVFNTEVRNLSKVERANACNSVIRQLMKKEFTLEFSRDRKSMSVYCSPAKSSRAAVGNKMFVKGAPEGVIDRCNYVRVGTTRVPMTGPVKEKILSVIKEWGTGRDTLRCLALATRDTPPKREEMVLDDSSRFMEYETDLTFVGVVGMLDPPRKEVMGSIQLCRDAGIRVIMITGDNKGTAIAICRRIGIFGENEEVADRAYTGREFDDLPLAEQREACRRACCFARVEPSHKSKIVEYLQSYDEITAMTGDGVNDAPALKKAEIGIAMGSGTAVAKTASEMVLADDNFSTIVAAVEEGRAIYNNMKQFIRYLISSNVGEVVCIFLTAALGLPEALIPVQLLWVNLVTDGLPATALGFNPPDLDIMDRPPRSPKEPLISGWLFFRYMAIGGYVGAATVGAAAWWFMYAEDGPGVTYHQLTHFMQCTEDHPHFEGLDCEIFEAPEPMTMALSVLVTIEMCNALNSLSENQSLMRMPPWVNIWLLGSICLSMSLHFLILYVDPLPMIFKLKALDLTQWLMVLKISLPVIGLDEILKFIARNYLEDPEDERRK

`CC[C@H](C)[C@H](NC(=O)[C@H](CCCCN)NC(=O)[C@H](CCCCN)NC(=O)[C@H](C)NC(=O)[C@H](CC(C)C)NC(=O)[C@H](C)NC(=O)[C@H](C)NC(=O)[C@H](CC(C)C)NC(=O)[C@H](C)NC(=O)[C@H](CCCCN)NC(=O)[C@H](CC(C)C)NC(=O)[C@H](CC(N)=O)NC(=O)[C@@H](NC(=O)[C@H](Cc1ccc(O)cc1)NC(=O)[C@H](CCCNC(=N)N)NC(=O)[C@@H]1CCCN1C(=O)[C@H](CCCNC(=N)N)NC(=O)[C@H](CC(N)=O)NC(=O)[C@H](CCC(N)=O)NC(=O)[C@H](Cc1ccccc1)NC(=O)[C@@H](Cc1ccc(O)cc1)N(C)C(=O)Cc1ccccc1)[C@@H](C)CC)C(=O)N[C@@H](CC(C)C)C(N)=O` gave an IC50 [1] of 0.61 µM.

For `CCCCC/C=C\C/C=C\C/C=C\C/C=C\CCCC(=O)O[C@@H]1[C@@H](O)[C@@H](O)[C@H](OC[C@H]2O[C@@H](Oc3c(-c4ccc(O)c(O)c4)oc4cc(O)cc(O)c4c3=O)[C@H](O)[C@@H](O)[C@@H]2O)O[C@H]1C`, the IC50 [2] was 23 µM.

Work on `CC(C)(c1cc(Br)c(O)c(Br)c1)c1cc(Br)c(O)c(Br)c1` yielded an IC50 [3] of 0.5 to 2.3 µM and an IC50 [4] of 0.5 to 2.3 µM.

Work on `CCOC(=O)CC1C(C(=O)OCC)=C(N)Oc2ccc(-c3ccccc3)cc21` (stereo not given) yielded an IC50 [3] of 23 µM and an IC50 [4] of 23 µM.

Work on `C[C@H](C[C@H](O)[C@H]1OC1(C)C)C1=C2C[C@H](O)[C@H]3[C@@]4(C)CCC(=O)C(C)(C)[C@@H]4CC[C@]3(C)[C@@]2(C)CC1` [ALISOL B] yielded an IC50 [3] of 27 to 53 µM and an IC50 [4] of 27 µM.

For `O=C1CSC(c2ccccc2Cl)c2cc(Cl)ccc2N1` (stereo not given), the IC50 [1] was 6.6 µM and the IC50 [5] was 9.9 µM.

`Cc1ccc(-c2cc(C(F)(F)F)nn2-c2ccc(S(N)(=O)=O)cc2)c(C)c1` showed an IC50 [1] of 30 µM.

Compound `C/C=C(/C)C(=O)O[C@H]1C(C)=C2[C@H]([C@@H]1OC(=O)CCCCCCC)[C@](C)(OC(C)=O)C[C@H](OC(=O)CCC)[C@@]1(O)[C@H]2OC(=O)[C@@]1(C)O` has a Ki [1] of 0.011 µM, an IC50 [6] of 0.21 to 12 µM and an IC50 [7] of 0.21 to 12 µM. The IC50 [8] was 0.21 to 12 µM.

`C/C=C/C/C(C)=C\[C@H]1C/C=C/C=C/C[C@H](C)/C=C(\C)[C@@H](OC)C/C=C/[C@@H](O[C@@H]2O[C@H](CO)[C@@H](O)[C@H](OC)[C@H]2O)CC(=O)O1` showed a Ki [9] of 0.011 µM.

`O=c1c(O)c(-c2ccc(O)c(O)c2)oc2cc(O)cc(O)c12` [QUERCETIN] gave an IC50 [10] of 9 µM.

With `C/C(O)=C1\C(=O)[C@@H]2[C@H]3c4c[nH]c5cccc(c45)C[C@H]3C(C)(C)N2C1=O` the IC50 [6] was 0.09 to 2.5 µM, the IC50 [7] was 0.09 to 2.5 µM and the IC50 [8] was 0.09 to 2.5 µM.

`CC(C)(C)c1cc(O)c(C(C)(C)C)cc1O` showed an IC50 [6] of 2 to 7 µM, an IC50 [7] of 2 to 7 µM and an IC50 [8] of 2 to 7 µM. For the same compound, the IC50 [11] was 0.4 µM.

`Cc1ccc(-c2cc(C(F)(F)F)nn2-c2ccc(S(N)(=O)=O)cc2)cc1` [CELECOXIB] gave an IC50 [12] of 32 µM.

`O=c1c(O)c(-c2ccccc2)oc2cc(O)cc(O)c12` [GALANGIN] gave an IC50 [10] of 9 µM.

`Clc1cccc(C(Nc2ccnc3cc(Cl)ccc23)c2ccc(CN3CCCC3)cc2)c1` (stereo not given) showed an IC50 [13] of 8 µM.

For `O=c1c(O)c(-c2ccccc2)oc2ccc(O)cc12`, the IC50 [10] was 6 µM.

In the case of `C/C=C(/C)C(=O)O[C@@H]1C[C@H]2C(=C1C)[C@@H]1OC(=O)[C@@](C)(O)[C@@]1(O)[C@@H](OC(=O)CCCCn1cc([C@]3(O)CC[C@H]4[C@@H]5CCc6cc(OC)ccc6[C@H]5CC[C@@]43C)nn1)C[C@]2(C)OC(C)=O`, the IC50 (MIA PaCa-2) is reported as > 50 µM, the IC50 (BJ) is reported as 17 µM and the IC50 (MRC5) is reported as 10.1 µM.

For `O=C1c2c(O)cc(O)cc2OC2(c3ccc(O)c(O)c3)Oc3cc(-c4oc5cc(O)cc(O)c5c(=O)c4O)ccc3OC12O` (stereo not given), the inhibition (Homo sapiens) was 100%.

`CCCCC/C=C\C/C=C\CCCCCCCC(=O)O[C@@H]1[C@@H](O)[C@@H](O)[C@H](OC[C@H]2O[C@@H](Oc3c(-c4ccc(O)c(O)c4)oc4cc(O)cc(O)c4c3=O)[C@H](O)[C@@H](O)[C@@H]2O)O[C@H]1C` showed an IC50 [2] of 28 µM.

For `C/C=C/C/C(C)=C\[C@@H]1OC(=O)C[C@H](O[C@@H]2O[C@H](CO)[C@@H](O)[C@H](OC)[C@H]2O)/C=C/C[C@H](OC)/C(C)=C/[C@@H](C)C[C@H]2C=C[C@H]1OO2`, the Ki [1] was 0.018 µM and the Ki [9] was 0.0013 µM.
